The results in this text go back to ChEMBL document CHEMBL6078725, “Discovery of novel xanthohumol C derivatives regulating XRCC2 transcription and expression for the treatment of colorectal cancer” (Bioorg Med Chem, 2025).

Broadly, the IC50 is the concentration needed to halve the response being measured. Read a low IC50 as greater potency in that assay.

Calls of active or inactive are those of the source. The calls are words filed in the database; no cut-off is given here. Where only a bound is given, the exact number is not on record here.

The subject of assay [1] is HCT-116. The experiment in a line: Antiproliferative activity against human HCT-116 cells incubated for 48 hrs by MTS assay. Type of assay: functional, cell-based. The settings on record: HCT-116, 48 h. For orientation: Tetrazolium dyes change colour on reduction, which living cells bring about.
Assay [2] concerns RKO. The assay is described as follows: Antiproliferative activity against human RKO cells incubated for 48 hrs by MTS assay. The assay is classed as functional, cell-based.
For assay [3], the system named is HCT-116. The experiment in a line: Antitumor activity against human HCT-116 cells xenografted in BALB/c mouse assessed as inhibition of tumor growth at 20 mg/kg, ip administered for 2 weeks. The assay is classed as functional, organism-based. On the technique in general: Xenograft models place foreign cells or tissue in a host animal.

Take `COc1cc2c(c(OC)c1C(=O)/C=C/c1ccc(O)cc1)C=CC(C)(C)O2`: the figures for the IC50 in assay [1] and in assay [2] were 46.4 µM and 25.6 µM, respectively.

Take `COc1cc2c(c(O)c1C(=O)/C=C/c1ccc(C(C)C)cc1)C=CC(C)(C)O2`: the figures for the IC50 in assay [1] and in assay [2] were 79.1 µM and 69.5 µM, respectively.

For the compound `COc1cc2c(c(O)c1C(=O)/C=C/c1cn(C)c3ccccc13)C=CC(C)(C)O2`, the IC50 in assay [1] and in assay [2] was greater than 200 µM each time.

Regarding `COc1cc2c(c(O)c1C(=O)/C=C/c1ccc(N3CCCC3)cc1)C=CC(C)(C)O2`, the IC50 in assay [1] and in assay [2] was greater than 200 µM each time.

For the compound `COc1cc(/C=C/C(=O)c2c(OC)cc3c(c2O)C=CC(C)(C)O3)ccc1O`, the values for the IC50 in assay [1] and in assay [2] were 24.8 µM and 17.6 µM, respectively.

In the case of `COc1cc2c(c(O)c1C(=O)/C=C/c1cccc(OCc3ccccc3)c1)C=CC(C)(C)O2`, the results for the IC50 in assay [1] and in assay [2] were 189 µM and 149 µM, respectively.

With `COc1cccc(/C=C/C(=O)c2c(OC)cc3c(c2O)C=CC(C)(C)O3)c1`, the IC50 in assay [1] is 25.1 µM; in assay [2], 24.4 µM.

For `COc1cc(O)ccc1/C=C/C(=O)c1c(OC)cc2c(c1O)C=CC(C)(C)O2`, the IC50 in assay [1] was found to be 32.1 µM; in assay [2], 28.4 µM.

For the compound `COc1cc2c(c(O)c1C(=O)/C=C/c1ccc3[nH]ccc3c1)C=CC(C)(C)O2`, the values for the IC50 in assay [1] and in assay [2] were greater than 22.4 µM and 19.2 µM, respectively.

For `COc1cc2c(c(O)c1C(=O)/C=C/c1ccc(Br)cc1)C=CC(C)(C)O2`, the concentration for half-maximal inhibition (IC50) worked out at 154 µM in assay [1] and 157 µM in assay [2].

In the case of `COc1cc(/C=C/C(=O)c2c(OC)cc3c(c2O)C=CC(C)(C)O3)cc(OC)c1`, the figures for the IC50 in assay [1] and in assay [2] were 24.9 µM and 25.1 µM, respectively.

As to `COc1cc2c(c(O)c1C(=O)/C=C/c1ccc(O)c(Br)c1)C=CC(C)(C)O2`, the IC50 in assay [1] came out at 24.6 µM; in assay [2] it was 21.1 µM.

For the compound `CCOc1ccc(Br)cc1/C=C/C(=O)c1c(OC)cc2c(c1O)C=CC(C)(C)O2`, the IC50 in assay [1] was 117 µM; in assay [2], 165 µM.

Take `COc1cc2c(c(O)c1C(=O)/C=C/c1cccc(Br)c1)C=CC(C)(C)O2`: the IC50 in assay [1] came out at 36.7 µM; in assay [2], 35.9 µM.

With `COc1ccc(/C=C/C(=O)c2c(OC)cc3c(c2O)C=CC(C)(C)O3)c(OC)c1OC`, the IC50 in assay [1] was 26.3 µM; in assay [2], 23.2 µM.

On to `COc1ccc(/C=C/C(=O)c2c(OC)cc3c(c2O)C=CC(C)(C)O3)cc1Br`, for which the results for the IC50 in assay [1] and in assay [2] were 44.6 µM and 35.6 µM, respectively.

In the case of `COc1cc(/C=C/C(=O)c2c(OC)cc3c(c2O)C=CC(C)(C)O3)cc(OC)c1OC`, the IC50 in assay [1] was determined as 25.4 µM; in assay [2], 21.5 µM.

For `COc1cc2c(c(O)c1C(=O)/C=C/c1ccccc1O)C=CC(C)(C)O2`, the values for the IC50 in assay [1] and in assay [2] were 12.9 µM and 10.9 µM, respectively.

On to `COc1cc2c(c(O)c1C(=O)/C=C/c1ccc(C(F)(F)F)cc1)C=CC(C)(C)O2`, for which the IC50 in assay [1] turned out to be 26.2 µM; in assay [2], 25.4 µM.

In the case of `COc1cc2c(c(O)c1C(=O)/C=C/c1ccc([N+](=O)[O-])cc1)C=CC(C)(C)O2`, the IC50 in assay [1] amounted to 163 µM; in assay [2], 133 µM.

Turning to `COc1cc2c(c(O)c1C(=O)/C=C/c1cccc(N3CCN(C)CC3)c1)C=CC(C)(C)O2`, the IC50 was found to be 12.5 µM in assay [1] and 128 µM in assay [2].

For `COc1cc2c(c(OC)c1C(=O)/C=C/c1ccc(Cl)cc1)C=CC(C)(C)O2`, the IC50 is greater than 12.7 µM in assay [1] and 9.04 µM in assay [2].

For the compound `COc1ccc(/C=C/C(=O)c2c(OC)cc3c(c2O)C=CC(C)(C)O3)cc1O`, the values for the IC50 in assay [1] and in assay [2] were 25 µM and 18.3 µM, respectively.

`COc1cc(/C=C/C(=O)c2c(OC)cc3c(c2O)C=CC(C)(C)O3)cc(OC)c1O`: the values for the IC50 in assay [1] and in assay [2] were 39.4 µM and 25.6 µM, respectively.

Turning to `CCN(CC)c1ccc(/C=C/C(=O)c2c(OC)cc3c(c2O)C=CC(C)(C)O3)cc1`, the IC50 in assay [1] and in assay [2] was greater than 200 µM each time.

Turning to `COc1cc2c(c(O)c1C(=O)/C=C/c1cccc(C(C)(C)C)c1)C=CC(C)(C)O2`, the IC50 in assay [1] was found to be 74.2 µM; in assay [2], 89.8 µM.

As to `COc1cc2c(c(O)c1C(=O)/C=C/c1ccc(N3CCN(C)CC3)cc1)C=CC(C)(C)O2`, the IC50 in assay [1] was found to be 12.5 µM; in assay [2], 13.5 µM.

As for `COc1cc2c(c(OC)c1C(=O)/C=C/c1ccccc1)C=CC(C)(C)O2`, the 50% inhibitory concentration (IC50) in assay [1] was determined as 22.7 µM; in assay [2], 20.4 µM.

`COc1cc2c(c(O)c1C(=O)/C=C/c1ccc(Cl)cc1)C=CC(C)(C)O2`: the IC50 in assay [1] turned out to be 26.1 µM; in assay [2], 26.2 µM.

As for `COc1cc2c(c(O)c1C(=O)/C=C/c1ccc(O)cc1)C=CC(C)(C)O2` [XANTHOHUMOL C], the IC50 in assay [1] was determined as 25.9 µM; in assay [2] it was 28.5 µM.

`COc1cc2c(c(O)c1C(=O)/C=C/c1ccc(N(C)C)cc1)C=CC(C)(C)O2`: the IC50 is greater than 200 µM in assay [1] and 118 µM in assay [2].

`COc1cc2c(c(O)c1C(=O)/C=C/c1ccccc1)C=CC(C)(C)O2`: the IC50 came to 24.9 µM in assay [1] and 23.6 µM in assay [2].

With `COc1cc2c(c(O)c1C(=O)/C=C/c1ccc(N3CCCCC3)cc1)C=CC(C)(C)O2`, the IC50 is 200 µM in assay [1] and greater than 200 µM in assay [2].

Consider `COc1cccc(/C=C/C(=O)c2c(OC)cc3c(c2O)C=CC(C)(C)O3)c1OC`, for which the half-maximal inhibitory concentration (IC50) was 23.1 µM in assay [1] and 13.9 µM in assay [2].

As for `COc1cc2c(c(O)c1C(=O)/C=C/c1ccccc1Br)C=CC(C)(C)O2`, the IC50 in assay [1] stood at 20.5 µM; in assay [2], 23.1 µM.

Turning to `O=c1[nH]cc(F)c(=O)[nH]1`, the result in assay [3] was Active.
